The values below are quoted from earlier work in US9221758B2, “Methods of synthesizing pharmaceutical salts of a factor Xa inhibitor” (Millennium Pharmaceuticals, Inc., priority 2006, dated 2015).

The structures appear in SMILES notation. Where two headings read alike, the source gives them in different places.

For data set [1] the following is noted: statement in words, information in US2007/0112039.
The target of data set [2] is Factor Xa (Homo sapiens, UniProt P00742). The following applies: statement in words, as discussed in U.S. Pat. No. 6,376,515.
Factor Xa, sequence (P00742 235-488 limits assumed): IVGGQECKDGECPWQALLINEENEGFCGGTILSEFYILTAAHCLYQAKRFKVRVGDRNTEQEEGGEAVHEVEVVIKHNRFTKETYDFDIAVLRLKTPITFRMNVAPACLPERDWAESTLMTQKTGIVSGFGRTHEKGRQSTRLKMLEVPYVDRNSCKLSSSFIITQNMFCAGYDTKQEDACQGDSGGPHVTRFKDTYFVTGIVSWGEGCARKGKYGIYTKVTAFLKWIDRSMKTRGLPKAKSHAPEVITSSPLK
Factor Xa, sequence (P00742 41-179 partner limits assumed): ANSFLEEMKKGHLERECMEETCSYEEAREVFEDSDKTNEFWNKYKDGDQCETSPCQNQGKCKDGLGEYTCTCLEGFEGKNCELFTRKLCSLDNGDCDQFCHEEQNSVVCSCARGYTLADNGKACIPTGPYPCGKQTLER

Consider `COc1ccc(NC(=O)c2ccc(C(=N)N(C)C)cc2)c(C(=O)Nc2ccc(Cl)cn2)c1`, for which the “thermal and hydrolytic stability” value in data set [1] was “excellent”; in data set [1] (listed as maleate salt), “best thermal and hydrolytic stability observed”.

`COc1ccc(NC(=O)c2ccc(C(=N)N(C)C)cc2)c(C(=O)Nc2ccc(Cl)cn2)c1` [compound of Formula I]: the Xa inhibitor potency entry in data set [2] is “potent Xa inhibitor”.
